{
  "source": "patent US6933304B2",
  "about": "“Heteroarylalkanoic acids as integrin receptor antagonists” (Pharmacia Corporation, priority 2000, dated 2005)",
  "key": {"[1]": {"biological_target": "T1, αVβ3 integrin (293-β3 cells) (Homo sapiens, UniProt P05106+P06756)", "T1 construct": "expressed in transfected cells; host or cells: 293 human embryonic kidney cells (293-β3)", "T1 sequence (P06756 31-889 limits assumed)": "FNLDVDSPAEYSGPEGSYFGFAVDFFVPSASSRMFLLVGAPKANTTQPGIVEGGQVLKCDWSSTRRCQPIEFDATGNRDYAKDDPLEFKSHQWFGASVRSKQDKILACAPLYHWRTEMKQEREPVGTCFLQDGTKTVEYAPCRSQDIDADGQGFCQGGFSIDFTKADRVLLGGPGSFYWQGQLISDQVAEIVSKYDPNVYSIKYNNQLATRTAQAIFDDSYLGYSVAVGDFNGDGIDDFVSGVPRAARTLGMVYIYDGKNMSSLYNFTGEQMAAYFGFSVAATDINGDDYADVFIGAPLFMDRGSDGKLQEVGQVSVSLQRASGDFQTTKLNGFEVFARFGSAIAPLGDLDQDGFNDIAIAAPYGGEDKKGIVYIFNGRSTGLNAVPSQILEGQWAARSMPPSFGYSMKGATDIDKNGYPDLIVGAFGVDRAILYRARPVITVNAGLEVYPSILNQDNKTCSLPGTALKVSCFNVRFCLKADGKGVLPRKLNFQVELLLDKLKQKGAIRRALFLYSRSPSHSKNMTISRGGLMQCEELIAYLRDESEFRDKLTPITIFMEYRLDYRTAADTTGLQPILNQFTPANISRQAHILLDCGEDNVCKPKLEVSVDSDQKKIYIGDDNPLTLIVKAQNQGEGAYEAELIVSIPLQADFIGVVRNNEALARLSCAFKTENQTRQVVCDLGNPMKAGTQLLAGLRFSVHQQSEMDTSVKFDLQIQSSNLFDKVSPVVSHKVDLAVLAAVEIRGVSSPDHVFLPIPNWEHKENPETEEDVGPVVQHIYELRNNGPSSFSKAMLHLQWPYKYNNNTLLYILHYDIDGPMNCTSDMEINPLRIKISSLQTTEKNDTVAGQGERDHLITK", "T1 sequence (P06756 891-1048 partner limits assumed)": "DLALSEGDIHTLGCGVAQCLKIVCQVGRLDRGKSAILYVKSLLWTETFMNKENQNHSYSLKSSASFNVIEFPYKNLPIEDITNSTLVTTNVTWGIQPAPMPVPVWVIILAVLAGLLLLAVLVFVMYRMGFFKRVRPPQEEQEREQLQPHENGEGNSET", "T1 sequence (P05106 27-788)": "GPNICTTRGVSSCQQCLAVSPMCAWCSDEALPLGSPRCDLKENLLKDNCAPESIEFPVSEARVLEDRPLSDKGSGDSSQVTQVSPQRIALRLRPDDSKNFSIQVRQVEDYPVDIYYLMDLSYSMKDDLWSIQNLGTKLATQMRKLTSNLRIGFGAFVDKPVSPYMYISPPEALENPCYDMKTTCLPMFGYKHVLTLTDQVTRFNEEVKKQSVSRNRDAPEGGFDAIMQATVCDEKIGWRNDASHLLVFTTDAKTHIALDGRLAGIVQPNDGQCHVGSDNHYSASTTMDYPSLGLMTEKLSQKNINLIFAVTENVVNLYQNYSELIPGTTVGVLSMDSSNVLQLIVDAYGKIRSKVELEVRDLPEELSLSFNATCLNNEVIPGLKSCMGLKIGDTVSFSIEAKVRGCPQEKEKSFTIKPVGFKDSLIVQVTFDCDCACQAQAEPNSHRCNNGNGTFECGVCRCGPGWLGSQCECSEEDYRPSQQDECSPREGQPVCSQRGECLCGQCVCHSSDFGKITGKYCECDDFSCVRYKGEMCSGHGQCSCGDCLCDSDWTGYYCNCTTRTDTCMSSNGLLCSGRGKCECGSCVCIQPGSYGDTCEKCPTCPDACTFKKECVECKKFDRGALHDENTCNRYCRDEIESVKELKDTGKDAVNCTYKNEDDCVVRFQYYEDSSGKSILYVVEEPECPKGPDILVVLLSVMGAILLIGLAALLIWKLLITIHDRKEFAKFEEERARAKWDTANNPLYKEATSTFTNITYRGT", "experiment": "293-β3 cell adhesion assay (adhesion to immobilized vitronectin)", "type": "cell-based", "conditions": "200 uM Mn2+, read-out: 293-β3 (IC50 <10 μM)", "source_text": "While the β3 subunit of αVβ3 is only known to complex with αV or αIIb, the αV subunit complexes with multiple β subunits. The three αV integrins most homologous with αVβ3 are αVβ1, αVβ5 and αVβ6, with 43%, 56% and 47% amino acid identity in the β subunits, respectively. To evaluate the selectivity of compounds between the integrins αVβ3 and αVβ6, cell-based assays were established using the 293 human embryonic kidney cell line. 293 cells express αVβ1, but little to no detectable αVβ3 or αVβ6. cDNAs for β3 and β6 were transfected separately into 293 cells to generate 293-β3 and 293-β6 cells, respectively. High surface expression of αVβ3 and αVβ6 was confirmed by flow cytometry. Conditions were established for each cell line in which cell adhesion to immobilized human vitronectin was mediated by the appropriate integrin, as determined by a panel of integrin-specific, neutralizing monoclonal antibodies. Briefly, cells were incubated with inhibitor in the presence of 200 uM Mn^2+, allowed to adhere to immobilized vitronectin, washed, and adherent cells are detected endogenous alkaline phosphatase and para-nitrophenyl phosphate. An 8-point dose-response curve using either 10-fold or 3-fold dilutions of compound was evaluated by fitting a four-parameter logistic, nonlinear model (using SAS)."}, "[2]": {"biological_target": "T2, αVβ6 (HT-29 human colon carcinoma cells) (Homo sapiens, UniProt P06756+P18564)", "T2 construct": "endogenous in cells; host or cells: HT-29 human colon carcinoma cells", "T2 sequence (P06756 31-889 limits assumed)": "as the sequence (P06756 31-889 limits assumed) above", "T2 sequence (P06756 891-1048 partner limits assumed)": "as the sequence (P06756 891-1048 partner limits assumed) above", "T2 sequence (P18564 22-788)": "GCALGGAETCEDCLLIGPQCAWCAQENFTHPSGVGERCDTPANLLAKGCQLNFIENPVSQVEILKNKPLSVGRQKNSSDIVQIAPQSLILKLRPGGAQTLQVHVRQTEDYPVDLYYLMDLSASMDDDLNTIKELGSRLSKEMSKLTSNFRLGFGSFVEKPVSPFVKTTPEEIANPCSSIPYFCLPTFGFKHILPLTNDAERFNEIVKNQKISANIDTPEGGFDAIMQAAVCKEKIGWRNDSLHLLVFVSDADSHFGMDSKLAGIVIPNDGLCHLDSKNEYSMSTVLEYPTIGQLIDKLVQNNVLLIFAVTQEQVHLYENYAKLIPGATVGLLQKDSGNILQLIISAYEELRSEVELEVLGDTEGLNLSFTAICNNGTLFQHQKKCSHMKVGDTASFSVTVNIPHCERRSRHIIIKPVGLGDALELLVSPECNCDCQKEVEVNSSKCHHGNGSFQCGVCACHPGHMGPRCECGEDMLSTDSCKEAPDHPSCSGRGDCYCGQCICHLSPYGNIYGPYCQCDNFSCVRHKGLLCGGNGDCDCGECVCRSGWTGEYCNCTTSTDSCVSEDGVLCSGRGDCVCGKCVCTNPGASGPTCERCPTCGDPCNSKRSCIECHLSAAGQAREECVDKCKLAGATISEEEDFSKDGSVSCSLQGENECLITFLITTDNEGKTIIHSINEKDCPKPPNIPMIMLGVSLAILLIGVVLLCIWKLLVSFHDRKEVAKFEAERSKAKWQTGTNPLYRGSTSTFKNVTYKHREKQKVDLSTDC", "experiment": "HT-29 cell adhesion assay (adhesion to immobilized LAP)", "type": "cell-based", "conditions": "selectivity ratio: IC50 αVβ6 (HT-29) over IC50 β3", "protocol": "To evaluate compound potency for membrane-bound αVβ6 an additional cell-based adhesion assay was established using the HT-29 human colon carcinoma cell line. High surface expression of αVβ6 on HT-29 cells was confirmed by flow cytometry. Conditions were established in which cell adhesion to immobilized human latency associated peptide (LAP) was mediated by the αVβ6, as determined by a panel of integrin-specific, neutralizing monoclonal antibodies. Briefly, cells were incubated with inhibitor in the presence of 200 uM Mn^2+, allowed to adhere to immobilized LAP, washed, and adherent cells are detected by quantifying endogenous alkaline phosphatase using para-nitrophenyl phosphate. An 8-point dose-response curve using either 10-fold or 3-fold dilutions of compound was evaluated by fitting a four-parameter logistic, nonlinear model (using SAS). The compounds evaluated were relatively ineffective at inhibition of αVβ6-mediated cell adhesion. The selective antagonism of the αVβ3 integrin is viewed as desirable in this class of compounds, as αVβ6 may also play a role in normal physiological processes of tissue repair and cellular turnover that routinely occur in the skin and pulmonary tissues."}, "[3]": {"biological_target": "T3, Human fibrinogen receptor (IIb/IIIa) (Homo sapiens, UniProt P05106+P08514)", "T3 construct": "Human fibrinogen receptor (IIb/IIIa) was purified from outdated platelets; from tissue; host or cells: outdated human platelets", "T3 sequence (P08514 32-887 limits assumed)": "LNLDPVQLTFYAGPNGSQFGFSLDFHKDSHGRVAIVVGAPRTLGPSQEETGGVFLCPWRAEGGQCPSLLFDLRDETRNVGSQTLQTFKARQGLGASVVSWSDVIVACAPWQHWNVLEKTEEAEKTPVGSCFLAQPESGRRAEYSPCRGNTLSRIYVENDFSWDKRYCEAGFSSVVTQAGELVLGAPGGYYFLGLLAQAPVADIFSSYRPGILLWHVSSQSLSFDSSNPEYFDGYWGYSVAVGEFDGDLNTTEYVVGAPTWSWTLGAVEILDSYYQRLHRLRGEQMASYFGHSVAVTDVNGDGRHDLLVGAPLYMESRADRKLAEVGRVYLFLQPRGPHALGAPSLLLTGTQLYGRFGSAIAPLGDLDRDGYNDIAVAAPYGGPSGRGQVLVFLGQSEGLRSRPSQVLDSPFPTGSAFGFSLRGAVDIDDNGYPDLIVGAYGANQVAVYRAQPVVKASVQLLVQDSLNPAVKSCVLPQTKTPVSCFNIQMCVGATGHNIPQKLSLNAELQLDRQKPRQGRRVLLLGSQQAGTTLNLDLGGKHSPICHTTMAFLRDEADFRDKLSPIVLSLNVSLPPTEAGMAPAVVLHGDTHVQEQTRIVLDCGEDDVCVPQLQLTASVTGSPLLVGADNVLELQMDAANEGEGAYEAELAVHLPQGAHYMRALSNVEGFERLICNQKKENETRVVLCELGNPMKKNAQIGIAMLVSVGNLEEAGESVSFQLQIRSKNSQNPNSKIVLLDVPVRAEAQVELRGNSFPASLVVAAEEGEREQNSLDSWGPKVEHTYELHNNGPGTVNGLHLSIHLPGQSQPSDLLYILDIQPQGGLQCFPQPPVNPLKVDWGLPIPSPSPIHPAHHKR", "T3 sequence (P08514 891-1039 partner limits assumed)": "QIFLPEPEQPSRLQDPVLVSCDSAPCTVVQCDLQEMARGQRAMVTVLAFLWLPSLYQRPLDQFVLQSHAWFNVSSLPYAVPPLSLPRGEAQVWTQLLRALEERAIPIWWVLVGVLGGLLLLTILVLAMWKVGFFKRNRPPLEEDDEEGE", "T3 sequence (P05106 27-788)": "as the sequence (P05106 27-788) above", "experiment": "Purified IIb/IIIa receptor assay (solid phase receptor assay, SPRA)", "type": "binding", "conditions": "selectivity ratio: IC50 αIIbβ3 (solid phase receptor assay) over IC50 β3", "source_text": "Human fibrinogen receptor (IIb/IIIa) was purified from outdated platelets. (Pytela, R., Pierschbacher, M. D., Argraves, S., Suzuki, S., and Rouslahti, E. “Arginine-Glycine-Aspartic acid adhesion receptors”, Methods in Enzymology 144(1987):475-489.) Human vitronectin was purified from fresh frozen plasma as described in Yatohgo, T., Izumi, M., Kashiwagi, H., and Hayashi, M., “Novel purification of vitronectin from human plasma by heparin affinity chromatography,” Cell Structure and Function 13(1988):281-292. Biotinylated human vitronectin was prepared by coupling NHS-biotin from Pierce Chemical Company (Rockford, IL) to purified vitronectin as previously described. (Charo, I. F., Nannizzi, L., Phillips, D. R., Hsu, M. A., Scarborough, R. M., “Inhibition of fibrinogen binding to GP IIb/IIIa by a GP IIIa peptide”, J. Biol. Chem. 266(3)(1991): 1415-1421.) Assay buffer, OPD substrate tablets, and RIA grade BSA were obtained from Sigma (St. Louis, Mo.). Anti-biotin antibody was obtained from Sigma (St. Louis, Mo.). Nalge Nunc-Immuno microtiter plates were obtained from (Rochester, N.Y.). ADP reagent was obtained from Sigma (St. Louis, Mo.).\nThis assay is essentially the same reported in Niiya, K., Hodson, E., Bader, R., Byers-Ward, V. Koziol, J. A., Plow, E. F. and Ruggeri, Z. M., “Increased surface expression of the membrane glycoprotein IIb/IIIa complex induced by platelet activation: Relationships to the binding of fibrinogen and platelet aggregation”, Blood 70(1987):475-483. The purified human fibrinogen receptor (IIb/IIIa) was diluted from stock solutions to 1.0 μg/mL in Tris-buffered saline containing 1.0 mM Ca^++, Mg^++, and Mn^++, pH 7.4 (TBS^+++). The diluted receptor was immediately transferred to Nalge Nunc-Immuno microtiter plates at 100 μL/well (100 ng receptor/well). The plates were sealed and incubated overnight at 4° C. to allow the receptors to bind to the wells. All remaining steps were at room temperature. The assay plates were emptied and 200 μL of 1% RIA grade BSA in TBS^+++ (TBS^+++/BSA) were added to block exposed plastic surfaces. Following a 2 hour incubation, the assay plates were washed with TBS^+++ using a 96 well plate washer. Logarithmic serial dilution of the test compound and controls were made starting at a stock concentration of […] and using 2 nM biotinylated vitronectin in TBS^+++/BSA as the diluent. This premixing of labeled ligand with test (or control) ligand, and subsequent transfer of 50 μL aliquots to the assay plate was carried out with a CETUS Propette robot; the final concentration of the labeled ligand was 1 nM and the highest concentration of test compound was 1.0×10^−4 M. The competition occurred for two hours after which all wells were washed with a plate washer as before. Affinity purified horseradish peroxidase labeled goat anti-biotin antibody was diluted 1:2000 in TBS^+++/BSA and 125 μL were added to each well. After 45 minutes, the plates were washed and incubated with […] substrate in 100 mM/L citrate buffer, pH 5.0. The plate was read with a microtiter plate reader at a wavelength of 450 nm and when the maximum-binding control wells reached an absorbance of about 1.0, the final A450 were recorded for analysis. The data were analyzed using a macro written for use with the EXCELJ spreadsheet program. The mean, standard deviation, and %CV were determined for duplicate concentrations. The mean A450 values were normalized to the mean of four maximum-binding controls (no competitor added)(B-MAX). The normalized values were subjected to a four parameter curve fit algorithm, [Robard et al., Int."}},
  "data": [
    {"smiles": "CC(CC(=O)O)Cc1nc(CCCc2ccc3c(n2)NCCC3)no1", "note": "(stereo not drawn) [Example 70, 3-methyl-4-{3-[3-(5,6,7,8-tetrahydro-1,8-naphthyridin-2-yl)propyl]-1,2,4-oxadiazol-5-yl}butanoic acid]", "values": [
      {"measurement": "IC50", "setting": "[1]", "value": "< 10", "unit": "µM"},
      {"measurement": "HT-29 β-6 Selectivity* (β6/β3)", "setting": "[2]", "value": "+++ (Selectivity Ratio >100 +++)"},
      {"measurement": "SPRA AIIbB3 Selectivity* IIbIIIa/β3", "setting": "[3]", "value": "+++ (Selectivity Ratio >100 +++)"}
    ]},
    {"smiles": "O=C(O)CC(Cc1nc(CCCCNc2ccccn2)no1)c1ccc2c(c1)OCO2", "note": "(stereo not drawn) [Example 17, 3-(1,3-benzodioxol-5-yl)-4-{3-[4-(pyridin-2-ylamino)butyl]-1,2,4-oxadiazol-5-yl}butanoic acid]", "values": [
      {"measurement": "IC50", "setting": "[1]", "value": "< 10", "unit": "µM"},
      {"measurement": "HT-29 β-6 Selectivity* (β6/β3)", "setting": "[2]", "value": "+++ (Selectivity Ratio >100 +++)"},
      {"measurement": "SPRA AIIbB3 Selectivity* IIbIIIa/β3", "setting": "[3]", "value": "++ (Selectivity Ratio of 10-100 ++)"}
    ]},
    {"smiles": "CC(CC(=O)O)(Cc1nc(CCCc2ccc3c(n2)NCCC3)no1)c1ccccc1", "note": "(stereo not drawn) [Example 47, 3-Methyl-3-phenyl-4-{3-[3-(5,6,7,8-tetrahydro-[1,8]naphthyridin-2-yl)-propyl]-[1,2,4]oxadiazol-5-yl}-butyric acid]", "values": [
      {"measurement": "IC50", "setting": "[1]", "value": "< 10", "unit": "µM"},
      {"measurement": "HT-29 β-6 Selectivity* (β6/β3)", "setting": "[2]", "value": "+++ (Selectivity Ratio >100 +++)"},
      {"measurement": "SPRA AIIbB3 Selectivity* IIbIIIa/β3", "setting": "[3]", "value": "+++ (Selectivity Ratio >100 +++)"}
    ]},
    {"smiles": "O=C(O)C(F)(F)F.O=C(O)CC(Cc1nc(CCCCNc2ccccn2)no1)c1cccc(C(F)(F)F)c1", "note": "(stereo not drawn) [Example 29, 4-{3-[4-(pyridin-2-ylamino)butyl]-1,2,4-oxadiazol-5-yl}-3-[3-(trifluoromethyl)-phenyl]butanoic acid]", "values": [
      {"measurement": "IC50", "setting": "[1]", "value": "< 10", "unit": "µM"},
      {"measurement": "HT-29 β-6 Selectivity* (β6/β3)", "setting": "[2]", "value": "+++ (Selectivity Ratio >100 +++)"},
      {"measurement": "SPRA AIIbB3 Selectivity* IIbIIIa/β3", "setting": "[3]", "value": "+++ (Selectivity Ratio >100 +++)"}
    ]},
    {"smiles": "CCC(C)(CC(=O)O)Cc1nc(CCCCNc2ccccn2)no1", "note": "(stereo not drawn) [Example 36, 3-methyl-3-({3-[4-(pyridin-2-ylamino)butyl]-1,2,4-oxadiazol-5-yl}methyl)pentanoic acid]", "values": [
      {"measurement": "IC50", "setting": "[1]", "value": "< 10", "unit": "µM"},
      {"measurement": "HT-29 β-6 Selectivity* (β6/β3)", "setting": "[2]", "value": "+++ (Selectivity Ratio >100 +++)"},
      {"measurement": "SPRA AIIbB3 Selectivity* IIbIIIa/β3", "setting": "[3]", "value": "+++ (Selectivity Ratio >100 +++)"}
    ]},
    {"smiles": "COc1ccc(C(CC(=O)O)Cc2nc(CCCCNc3ccccn3)no2)cc1.O=C(O)C(F)(F)F", "note": "(stereo not drawn) [Example 23, 3-(4-methoxyphenyl)-4-{3-[4-(pyridin-2-ylamino)butyl]-1,2,4-oxadiazol-5-yl}butanoic acid]", "values": [
      {"measurement": "IC50", "setting": "[1]", "value": "< 10", "unit": "µM"},
      {"measurement": "HT-29 β-6 Selectivity* (β6/β3)", "setting": "[2]", "value": "+++ (Selectivity Ratio >100 +++)"},
      {"measurement": "SPRA AIIbB3 Selectivity* IIbIIIa/β3", "setting": "[3]", "value": "++ (Selectivity Ratio of 10-100 ++)"}
    ]},
    {"smiles": "O=C(O)C(F)(F)F.O=C(O)CC(Cc1nc(CCCCNc2ccccn2)no1)c1cccc(F)c1", "note": "(stereo not drawn) [Example 25, 3-(3-fluorophenyl)-4-{3-[4-(pyridin-2-ylamino)butyl]-1,2,4-oxadiazol-5-yl}butanoic acid trifluoroacetate]", "values": [
      {"measurement": "IC50", "setting": "[1]", "value": "< 10", "unit": "µM"},
      {"measurement": "HT-29 β-6 Selectivity* (β6/β3)", "setting": "[2]", "value": "+++ (Selectivity Ratio >100 +++)"},
      {"measurement": "SPRA AIIbB3 Selectivity* IIbIIIa/β3", "setting": "[3]", "value": "++ (Selectivity Ratio of 10-100 ++)"}
    ]},
    {"smiles": "CC(C)(CC(=O)O)Cc1nc(CCCCNc2ccccn2)no1", "note": "[Example 62, β,β-dimethyl-3-[4-(2-pyridinylamino)butyl]-1,2,4-oxadiazole-5-butanoic acid]", "values": [
      {"measurement": "IC50", "setting": "[1]", "value": "< 10", "unit": "µM"},
      {"measurement": "HT-29 β-6 Selectivity* (β6/β3)", "setting": "[2]", "value": "+++ (Selectivity Ratio >100 +++)"},
      {"measurement": "SPRA AIIbB3 Selectivity* IIbIIIa/β3", "setting": "[3]", "value": "+++ (Selectivity Ratio >100 +++)"}
    ]},
    {"smiles": "CCCC(C)(CC(=O)O)Cc1nc(CCCCNc2ccccn2)no1", "note": "(stereo not drawn) [Example 38, 3-methyl-3-({3-[4-(pyridin-2-ylamino)butyl]-1,2,4-oxadiazol-5-yl}methyl)-hexanoic acid]", "values": [
      {"measurement": "IC50", "setting": "[1]", "value": "< 10", "unit": "µM"},
      {"measurement": "HT-29 β-6 Selectivity* (β6/β3)", "setting": "[2]", "value": "+++ (Selectivity Ratio >100 +++)"},
      {"measurement": "SPRA AIIbB3 Selectivity* IIbIIIa/β3", "setting": "[3]", "value": "+++ (Selectivity Ratio >100 +++)"}
    ]},
    {"smiles": "CCC(C)(CC(=O)O)Cc1nc(CCCc2ccc3c(n2)NCCC3)no1", "note": "(stereo not drawn) [Example 43, 3-Methyl-3-{3-[3-(5,6,7,8-tetrahydro-[1,8]naphthyridin-2-yl)-propyl]-[1,2,4]oxadiazol-5-ylmethyl}-pentanoic acid]", "values": [
      {"measurement": "IC50", "setting": "[1]", "value": "< 10", "unit": "µM"},
      {"measurement": "HT-29 β-6 Selectivity* (β6/β3)", "setting": "[2]", "value": "+++ (Selectivity Ratio >100 +++)"},
      {"measurement": "SPRA AIIbB3 Selectivity* IIbIIIa/β3", "setting": "[3]", "value": "+++ (Selectivity Ratio >100 +++)"}
    ]}
  ]
}
